The values below come from paper PMC6414199, “Bim escapes displacement by BH3-mimetic anti-cancer drugs by double-bolt locking both Bcl-XL and Bcl-2” (eLife, 2019).

The target in the experiment is T1, Bcl-XL (Homo sapiens, UniProt Q07817).
T1 construct: gene BCL2L1; mCerulean3-Bcl-XL fusion expressed in MCF-7 cells
Kind of experiment: live-cell FLIM-FRET displacement of Venus-Bad from mCer3-Bcl-XL in MCF-7 cells. The experiment is classed as cell-based.

T1 sequence (Q07817 whole entry, the tested form may be a part): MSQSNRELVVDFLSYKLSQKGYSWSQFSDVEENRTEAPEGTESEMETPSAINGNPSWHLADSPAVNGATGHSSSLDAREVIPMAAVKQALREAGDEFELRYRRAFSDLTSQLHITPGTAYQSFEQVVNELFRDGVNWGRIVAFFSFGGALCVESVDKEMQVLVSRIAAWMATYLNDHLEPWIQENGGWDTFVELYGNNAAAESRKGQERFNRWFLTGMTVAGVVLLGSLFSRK

As for `CN(C)CC#Cc1ccc(OCCCc2sc(N3CCc4cccc(C(=O)Nc5nc6ccccc6s5)c4C3)nc2C(=O)O)c(F)c1` [A-1155463], the IC50 (commonly the concentration that gives 50% inhibition) is under 1250 nM.
